Tested on: IFN-a/Jak1Tyk2
Assay: Co-stimulation assay in lysed whole blood: IFNa (JAK1/TYK2) stimulated STAT1 phosphorylation
Assay type: cell-based
Details: lysed human whole blood, IFNa 100 ng/mL (co-stimulated with GM-CSF 10 ng/mL), pSTAT1 by flow cytometry
Method: Example 4: Co-Stimulation Assay in Lysed Whole Blood; JAK2: GM-CSF Stimulated STATS Phosphorylation and JAK1/TYK2 Stimulated STAT1 Phosphorylation Assay
Human Blood Lysis Using Abcam's RBC Lysis Buffer
Dilute RBC lysis buffer to 1× in distilled water. Add 2 mL blood to 38 mL of 1×RBC-lysis buffer. Incubate for 15 mins at RT, in dark. Spin at 300 g, 5 mins, to collect the pellet. Re-lyse if necessary. Re-suspend pellet in 5 mL of cRPMI.
Compound and Cytokine Treatment
Aliquot 80 μL of lysed human blood in to wells of 96 deep-well plate. Add 10 μl of (10× conc.) of different concentrations of compounds to all wells except controls (unstained and unstimulated) and mix it with the help of 100 uL multichannel. Add 10 uL of RPMI media in controls. For dilution of compounds and dilution range please refer Appendix. Incubate on water bath or CO2 incubator for 1 hour at 37° C. Add 10 μL of (10× conc.) of cytokine mix (GM-CSF and IFNa) (final conc. 10 ng/mL of GM-CSF and 100 ng/mL of IFNa) to each well except unstimulated and unstained controls and incubate further for 20 minutes on water bath at 37° C.
Add 900 μL of prewarmed 1× Fix/Lyse solution (Appendix) and mix it properly using 1000 μl multichannel, incubate further on water bath at 37° C. for 10 minutes (which includes time of addition). Centrifuge at 800× g for 5 minutes at 40° C.; remove 900 uL of supernatant and add 900 μL of 1×PBS. Centrifuge at 800× g for 5 minutes at 40° C., remove 900 μL of supernatant. Wash one more time with 900 μL of PBS (optional) and resuspend pellets in 100 uL of PBS.
Disrupt the pellet by gentle tapping and resuspend in 1000 μL of BD Phosflow Perm Buffer III and incubate plate on ice for 30 minutes. Centrifuge plate at 800× g for 5 minutes at 40° C. Wash two more times with 1000 μL of BD Pharmingen Stain Buffer.
Disrupt the pellet by gentle tapping. Resuspend pellets in 100 uL of Stain Buffer and add 5 μL of pSTAT5_AF488 Ab and 5 uL of pSTAT1_PE in all wells except unstained control and mix properly using 200 μl multichannel, incubate overnight at […]. Add 900 μL of wash buffer and centrifuge at 1800 rpm for 3 minutes at […]. Wash one more time with 1000 μL of BD Pharmingen Stain Buffer. Finally resuspend the pellet in 300 uL of BD Pharmingen Stain Buffer. Transfer the cells to 96-well v-bottom plate and acquire the cells in Beckman Coulter CytExpert. Acquiring cells in Flow Cytometer: Keep the threshold value to 250 and cell concentration should not exceed 100-500 cells/μL. Acquire at least 5,000-10,000 cells.
RPMI 1640 Complete Medium: RPMI 1640 media+10% FBS.
Cytokine dilution: 1) GM-CSF Stock at 100 ug/mL. Prepare an intermediate dilution of 1 ug/mL by adding 2 uL of stock into 198 uL of cRPMI. Further dilute to 100 ng/mL by adding 100 uL of the intermediate stock to 900 uL of cRPMI. 2) IFNa Stock at 200 ug/mL. Dilute IFNa stock 1:200 by adding 5 uL of stock into the 1000 uL of 100 ng/mL GM-CSF working stock as above to give a combined working stock of 1000 ng/mL of IFNa and 100 ng/mL GM-CSF (lox). Keep it on ice until used.
Lyse/Fix buffer preparation: Dilute 5× Lyse/Fix buffer to 1× using MQ water and keep at 37° C. until used.
BD Phosflow perm buffer III: Keep on ice/fridge.

Compound | IC50
CNc1cc2nc3c(cnn13)C(=O)NCC(C)Oc1cccc(c1)N2 (centres unmarked) [Compound 37, (1^3E,1^4E)-5-methyl-1^7-(methylamino)-4-oxa-2,7-diaza-1(5,3)-pyrazolo[1,5-a]pyrimidina-3(1,3)-benzenacyclooctaphan-8-one] | 1 to 10 µM
CNc1cc2nc3c(cnn13)C(=O)NCCCc1cc(O)cc(c1)N2 [Compound 38, (1^3E,1^4E)-3^5-hydroxy-1^7-(methylamino)-2,7-diaza-1(5,3)-pyrazolo[1,5-a]pyrimidina-3(1,3)-benzenacyclooctaphan-8-one] | 1 to 10 µM
CNc1cc2nc3c(cnn13)C(=O)NCCOc1cc(c(F)cc1C)N2 [Compound 39, (1^3E,1^4E)-3^6-fluoro-34-methyl-1^7-(methylamino)-4-oxa-2,7-diaza-1(5,3)-pyrazolo[1,5-a]pyrimidina-3(1,3)-benzenacyclooctaphan-8-one] | 1 to 10 µM
CNc1cc2nc3c(cnn13)C(=O)NCCCc1cc(cc(OC)c1)N2 [Compound 40, (1^3E,1^4E)-3^5-methoxy-1^7-(methylamino)-2,7-diaza-1(5,3)-pyrazolo[1,5-a]pyrimidina-3(1,3)-benzenacyclooctaphan-8-one] | 1 to 10 µM
CNc1cc2nc3c(cnn13)C(=O)NCCOc1cncc(c1)N2 [Compound 41, (1^3E,1^4E)-1^7-(methylamino)-4-oxa-2,7-diaza-1(5,3)-pyrazolo[1,5-a]pyrimidina-3(3,5)-pyridinacyclooctaphan-8-one] | 1 to 10 µM
CNc1cc2nc3c(cnn13)C(=O)NCCc1cccc(n1)N2 [Compound 42, (1^3E,1^4E)-1^7-(methylamino)-2,6-diaza-1(5,3)-pyrazolo[1,5-a]pyrimidina-3(2,6)-pyridinacycloheptaphan-7-one] | 1 to 10 µM
CNc1cc2nc3c(cnn13)C(=O)NCCCc1csc(n1)N2 [Compound 43, (1^2Z,3^3E,3^4E)-3^7-(methylamino)-2,5-diaza-1(2,4)-thiazola-3(5,3)-pyrazolo[1,5-a]pyrimidinacyclooctaphan-4-one] | 1 to 10 µM
CNc1cc2nc3c(cnn13)C(=O)NCCC(=O)c1cccc(c1)N2 [Compound 44, (1^3E,1^4E)-1^7-(methylamino)-2,7-diaza-1(5,3)-pyrazolo[1,5-a]pyrimidina-3(1,3)-benzenacyclooctaphane-4,8-dione] | 1 to 10 µM
CNc1cc2nc3c(cnn13)C(=O)NCCCn1cc(cn1)N2 [Compound 45, (1^3E,1^4E,3^4E)-1^7-(methylamino)-31H-2,7-diaza-1(5,3)-pyrazolo[1,5-a]pyrimidina-3(4,1)-pyrazolacyclooctaphan-8-one] | 1 to 10 µM
CNc1cc2nc3c(cnn13)C(=O)NCCCOc1ccc(F)cc1N2 [Compound 46, (1^3E,1^4E)-3^5-fluoro-1^7-(methylamino)-4-oxa-2,8-diaza-1(5,3)-pyrazolo[1,5-a]pyrimidina-3(1,2)-benzenacyclononaphan-9-one] | 1 to 10 µM
CNc1cc2nc3c(cnn13)C(=O)NCCn1cc(cn1)N2 [Compound 47, (1^3E,1^4E,3^4E)-1^7-(methylamino)-31H-2,6-diaza-1(5,3)-pyrazolo[1,5-a]pyrimidina-3(4,1)-pyrazolacycloheptaphan-7-one] | 1 to 10 µM
